Where two headings read alike, the source gives them in different places.
Experiments:
Assay type in all cases: in vivo
[1] = test system: giant foxtail (SETFA, Setaria faberi); assay: Postemergence greenhouse trial, herbicidal efficacy on giant foxtail; conditions: applied alone at 35 g/ha; for % visual injury, Obs, SETFA: rated after 20-22 d; for Obs, % visual injury, SETFA: scored 20-22 d
Description: (§1) Seeds of the desired test plant species were planted in Sun Gro MetroMix® 306 planting mixture, which typically has a pH of 6.0 to 6.8 and an organic matter content of about 30 percent, in plastic pots with a surface area of 103.2 square centimeters (cm^2). When required to ensure good germination and healthy plants, a fungicide treatment and/or other chemical or physical treatment was applied. The plants were grown for 7-36 days (d) in a greenhouse with an approximate 14-hour (h) photoperiod which was maintained at about 23° C. during the day and 22° C. during the night. Nutrients and water were added on a regular basis and supplemental lighting was provided with overhead metal halide 1000-Watt lamps as necessary. The plants were employed for testing when they reached the second or third true leaf stage.
(§2) Weighed amounts of technical material were dissolved in a volume of 97:3 volume per volume (v/v) acetone/dimethyl sulfoxide (DMSO) to stock solutions. […] The concentrated stock solutions were diluted with an aqueous mixture of 1.5% v/v of Agri-dex crop oil concentrate to provide the appropriate application rates. Compound requirements are based upon a 12 milliliter (mL) application volume at a rate of 187 liters per hectare (L/ha). Stocks solutions of the safeners were prepared following the same procedure. Spray solutions of the safeners and experimental compound mixtures were prepared by adding the stock solutions to the appropriate amount of dilution solution to form a 12 mL spray solution in two-way combinations. Formulated compounds were applied to the plant material with an overhead Mandel track sprayer equipped with 8002E nozzles calibrated to deliver 187 L/ha over an application area of 0.503 square meters (m^2) at a spray height of 18 inches (43 centimeters (cm)) above average plant canopy. Control plants were sprayed in the same manner with the solvent blank. All herbicide application (component a) rates are in g ae/ha and all safener (component b) rates are in g ai/ha.
(§3) The treated plants and control plants were placed in a greenhouse as described above and watered by sub-irrigation to prevent wash-off of the test compounds. After 20-22 d, the condition of the test plants as compared with that of the control plants was determined visually and scored on a scale of 0 to 100 percent where 0 corresponds to no injury and 100 corresponds to complete kill. The condition of the test plants was compared with that of the control plants as determined visually and scored on a scale of 0 to 100 percent, where 0 corresponds to no injury and 100 corresponds to complete kill. Colby's equation was used to determine the herbicidal effects expected from the mixtures.

[2] = test system: chickweed (STEME, Stellaria media); assay: Postemergence greenhouse trial, herbicidal efficacy on chickweed; conditions: post-emergence, 528 h
Description: as §1, §2, §3

[3] = test system: wild buckwheat (POLCO, Polygonum convolvulus); assay: Postemergence greenhouse trial, herbicidal efficacy on wild buckwheat; conditions: Fallopia convolvulus, post-emergence, 528 h
Description: as §1, §2, §3

[4] = test system: wild pansy (VIOTR, Viola tricolor); assay: Postemergence greenhouse trial, herbicidal efficacy on wild pansy; conditions: for pest or weed control at 35 g/ha: Viola tricolor, post-emergence, 528 h, read-out: Obs, % visual injury, VIOTR; for % visual injury, Obs, VIOTR: rated after 20-22 d
Description: as §1, §2, §3

[5] = test system: poinsettia (EPHHL, Euphorbia heterophylla); assay: Postemergence greenhouse trial, herbicidal efficacy on poinsettia; conditions: Euphorbia heterophylla, post-emergence, 528 h, read-out: % visual injury, Obs, EPHHL
Description: as §1, §2, §3

[6] = test system: lambsquarters (CHEAL, Chenopodium album); assay: Postemergence greenhouse trial, herbicidal efficacy on lambsquarters; conditions: post-emergence, 528 h
Description: as §1, §2, §3

[7] = test system: pigweed (AMARE, Amaranthus retroflexus); assay: Postemergence greenhouse trial, herbicidal efficacy on pigweed; conditions: post-emergence, 528 h
Description: as §1, §2, §3

[8] = test system: corn/maize (ZEAMX), Zea mays; assay: Postemergence greenhouse trial, crop injury (phytotoxicity/safening) on corn/maize; conditions: applied alone at 35 g/ha, rated after 20-22 d
Description: as §1
as §2, with “All herbicide application (component a) rates are in g ae/ha and all safener (component b) rates are in g ai/ha.” left out
as §3, with “Colby's equation was used to determine the herbicidal effects expected from the mixtures.” left out
The safener fenchlorazole-ethyl was combined with compound 1, compound 2, compound 5, and compound 6, and applied to corn/maize (ZEAMX) and the phytotoxicity of the herbicidal compositions was measured. In addition, the efficacy of the herbicidal composition on velvetleaf (ABUTH, Abutilon theophrasti), pigweed (AMARE, Amaranthus retroflexus), winter rape (BRSNW, Brassica napus), lambsquarters (CHEAL, Chenopodium album), thistle (CIRAR, Cirsium arvense), nutsedge (CYPES, Cyperus esculentus), poinsettia (EPHHL, Euphorbia heterophylla), wild buckwheat (POLCO, Polygonum convolvulus), giant foxtail (SETFA, Setaria faberi), sorghum (SORVU, Sorghum bicolor), and chickweed (STEME, Stellaria media) was evaluated.
The safener mefenpyr-diethyl was combined with compound 1, compound 2, and compound 5, and applied to corn/maize (ZEAMX) and the phytotoxicity of the herbicidal compositions were measured. […]

[9] = test system: sorghum (SORVU, Sorghum bicolor); assay: Postemergence greenhouse trial, herbicidal efficacy on sorghum; conditions: applied alone at 35 g/ha; for % visual injury, Obs, SORVU: rated after 20-22 d
Description: as §1, §2, §3

[10] = test system: wheat (TRZAS), Triticum aestivum (spring wheat); assay: Postemergence greenhouse trial, crop injury (phytotoxicity/safening) on wheat; conditions: applied alone at 35 g/ha, scored 20-22 d, 0 = no injury, 100 = complete kill
Description: as §1, §2, §3
The safener fenchlorazole-ethyl was combined with compound 1, compound 2, compound 3, compound 4, compound 5, and compound 6, and applied to wheat (TRZAS), and the phytotoxicity of the herbicidal compositions was measured. In addition, the efficacy of the herbicidal composition on velvetleaf (ABUTH, Abutilon theophrasti), pigweed (AMARE, Amaranthus retroflexus), winter rape (BRSNW, Brassica napus), lambsquarters (CHEAL, Chenopodium album), thistle (CIRAR, Cirsium arvense), nutsedge (CYPES, Cyperus esculentus), poinsettia (EPHHL, Euphorbia heterophylla), wild buckwheat (POLCO, Polygonum convolvulus), giant foxtail (SETFA, Setaria faberi), sorghum (SORVU, Sorghum bicolor), chickweed (STEME, Stellaria media), and wild pansy (VIOTR, Viola tricolor) was evaluated.
The safener isoxadifen-ethyl was combined with compound 1, compound 2, compound 3, compound 4, compound 5, and compound 6, and applied to wheat (TRZAS), and the phytotoxicity of the herbicidal compositions was measured. […]

[11] = test system: thistle (CIRAR, Cirsium arvense); assay: Postemergence greenhouse trial, herbicidal efficacy on thistle; conditions: post-emergence, 528 h
Description: as §1, §2, §3

[12] = test system: velvetleaf (ABUTH, Abutilon theophrasti); assay: Postemergence greenhouse trial, herbicidal efficacy on velvetleaf; conditions: post-emergence, 528 h
Description: as §1, §2, §3

[13] = test system: winter rape (BRSNW, Brassica napus); assay: Postemergence greenhouse trial, herbicidal efficacy on winter rape; conditions: post-emergence, 528 h
Description: as §1, §2, §3

[14] = test system: nutsedge (CYPES, Cyperus esculentus); assay: Postemergence greenhouse trial, herbicidal efficacy on nutsedge; conditions: applied alone at 35 g/ha, rated after 20-22 d
Description: as §1, §2, §3

[15] = applied alone at 35 g/ha, postemergence
[16] = read-out: % visual injury, Obs, STEME
[17] = read-out: Obs, % visual injury, STEME
[18] = read-out: % visual injury, Obs, POLCO
[19] = read-out: Obs, % visual injury, POLCO
[20] = read-out: % visual injury, Obs, CHEAL
[21] = read-out: Obs, % visual injury, CHEAL
[22] = read-out: % visual injury, Obs, AMARE
[23] = read-out: Obs, % visual injury, AMARE
[24] = read-out: % visual injury, Obs, CIRAR
[25] = read-out: Obs, % visual injury, CIRAR
[26] = read-out: % visual injury, Obs, ABUTH
[27] = read-out: Obs, % visual injury, ABUTH
[28] = read-out: % visual injury, Obs, BRSNW
[29] = read-out: Obs, % visual injury, BRSNW

| SMILES | % visual injury, Obs, SETFA [1] [%] | Obs, % visual injury, SETFA [1] [%] | % visual injury, Obs, VIOTR [4, 15] [%] | % visual injury, Obs, ZEAMX [8] [%] | % visual injury, Obs, SORVU [9] [%] | Obs, % visual injury, TRZAS [10] [%] | pest or weed control at 35 g/ha [2, 16] [%] | pest or weed control at 35 g/ha [2, 17] [%] | pest or weed control at 35 g/ha [3, 18] [%] | pest or weed control at 35 g/ha [3, 19] [%] | pest or weed control at 35 g/ha [4] [%] | pest or weed control at 35 g/ha [5] [%] | pest or weed control at 35 g/ha [6, 20] [%] | pest or weed control at 35 g/ha [6, 21] [%] | pest or weed control at 35 g/ha [7, 22] [%] | pest or weed control at 35 g/ha [7, 23] [%] | pest or weed control at 35 g/ha [11, 24] [%] | pest or weed control at 35 g/ha [11, 25] [%] | pest or weed control at 35 g/ha [12, 26] [%] | pest or weed control at 35 g/ha [12, 27] [%] | further results |
| --- | --- | --- | --- | --- | --- | --- | --- | --- | --- | --- | --- | --- | --- | --- | --- | --- | --- | --- | --- | --- | --- |
| COCC(=O)n1ccc2ccc(-c3nc(C(=O)OC)c(Cl)c(N)c3F)c(F)c21 [compound 6] | 10 | 10 | 30 | 25 | 70 | 35 | – | – | – | – | – | – | – | – | – | – | – | – | – | – | pest or weed control at 35 g/ha ([2]; applied alone at 35 g/ha, postemergence, rated after 20-22 d, read-out: % visual injury, Obs, STEME): 97%; pest or weed control at 35 g/ha ([2]; applied alone at 35 g/ha, postemergence, scored 20-22 d, read-out: Obs, % visual injury, STEME): 97%; pest or weed control at 35 g/ha ([3]; applied alone at 35 g/ha, postemergence, rated after 20-22 d, read-out: % visual injury, Obs, POLCO): 97%; pest or weed control at 35 g/ha ([3]; applied alone at 35 g/ha, postemergence, scored 20-22 d, read-out: Obs, % visual injury, POLCO): 97%; pest or weed control at 35 g/ha ([4]; applied alone at 35 g/ha, postemergence, scored 20-22 d): 30%; pest or weed control at 35 g/ha ([5]; applied alone at 35 g/ha, postemergence, rated after 20-22 d): 100%; pest or weed control at 35 g/ha ([6]; applied alone at 35 g/ha, postemergence, rated after 20-22 d, read-out: % visual injury, Obs, CHEAL): 100%; pest or weed control at 35 g/ha ([6]; applied alone at 35 g/ha, postemergence, scored 20-22 d, read-out: Obs, % visual injury, CHEAL): 100%; pest or weed control at 35 g/ha ([7]; applied alone at 35 g/ha, postemergence, rated after 20-22 d, read-out: % visual injury, Obs, AMARE): 100%; pest or weed control at 35 g/ha ([7]; applied alone at 35 g/ha, postemergence, scored 20-22 d, read-out: Obs, % visual injury, AMARE): 100%; pest or weed control at 35 g/ha ([11]; applied alone at 35 g/ha, postemergence, rated after 20-22 d, read-out: % visual injury, Obs, CIRAR): 75%; pest or weed control at 35 g/ha ([11]; applied alone at 35 g/ha, postemergence, scored 20-22 d, read-out: Obs, % visual injury, CIRAR): 75%; pest or weed control at 35 g/ha ([12]; applied alone at 35 g/ha, postemergence, rated after 20-22 d, read-out: % visual injury, Obs, ABUTH): 80%; pest or weed control at 35 g/ha ([12]; applied alone at 35 g/ha, postemergence, scored 20-22 d, read-out: Obs, % visual injury, ABUTH): 80%; plant injury at 35 g/ha ([13]; applied alone at 35 g/ha, postemergence, rated after 20-22 d, read-out: % visual injury, Obs, BRSNW): 75%; plant injury at 35 g/ha ([13]; applied alone at 35 g/ha, postemergence, scored 20-22 d, read-out: Obs, % visual injury, BRSNW): 75% |
| CCOC(=O)C1=NOC(c2ccccc2)(c2ccccc2)C1 [isoxadifen-ethyl, reference compound] | 0 | 0 | 0 | 0 | – | 0 | 0 | 0 | 0 | 0 | 0 | 0 | 0 | 0 | 0 | 0 | 0 | 0 | 0 | 0 | plant injury at 35 g/ha [13, 28]: 0%; plant injury at 35 g/ha [13, 29]: 0% |
| CCOC(=O)C1=NN(c2ccc(Cl)cc2Cl)C(C)(C(=O)OCC)C1 (centres unmarked) [mefenpyr-diethyl, reference compound] | – | – | 0 | 0 | 0 | 0 | 0 | 0 | 0 | 0 | 0 | 0 | 0 | 0 | 0 | 0 | 0 | 0 | 0 | 0 | % visual injury, Obs, CYPES [14]: 0%; Obs, % visual injury, SORVU ([9]; scored 20-22 d): 0%; plant injury at 35 g/ha [13, 28]: 0%; plant injury at 35 g/ha [13, 29]: 0% |
